Results on 20 molecules are retold here after patent US12612388B2, “Receptor-interacting protein 1 inhibitors including piperazine heterocyclic amide ureas” (SIRONAX LTD., priority 2020, dated 2026).

Structures are written as SMILES.

One assay relates to HT-29 cells. The assay is described as follows: Cellular RIP1 inhibitory activity: necroptosis of HT-29 cells induced by TNF-α/SMAC mimetic/zVAD-FMK, CellTiter-Glo viability. In kind it is cell-based. The following applies: Homo sapiens, HT-29, 20 h, read-out: EC50 (Cell activity; Necrosis or Necroptosis Inhibitory Activity). Here is the method:
In Table 2, activity is provided as follows: +++=0.1 nM≤EC50<100 nM; ++=100 nM≤EC50K<1000 nM; +=1000 nM≤EC50K<10000 nM.
Compounds 1-67 (denoted as Compound Nos. 1 through 67 in Table 1) of the disclosure were tested for binding and cellular RIP1 inhibitory activity following the experimental procedures described below.
Cell line: HT-29 (ATCC® HTB-38™)
Culture medium: McCOY's 5A, Gibco, Cat No. 16600-082
DMSO: Sigma, Cat No. 67-68-5, 1 L
Assay plate: Corning #3903
Compound dilution plate: Corning #3357
Inducers: TNFα, GenScript, Cat No. Z01001-50,
SmacM, Cat. No., HY-15989, MedChemExpress (MCE)
Z_VAD FMK, TargetMol, T6013
Cell Titer-Glo® Luminescent Cell Viability Assay Kit: Promega, Cat No. G7573
1. HT-29 cells were checked every day to make sure that they were healthy and growing as expected. They were subjected to sub-culturing when they were approximately 80% confluent.
2. The culture medium, McCOY's 5A medium (Gibco, Cat No. 16600-082) with 10% fetal bovine serum or FBS (Gibco, Cat No. 10099-141C), was pre-warmed in a 37° C. water bath for at least 30 min.
3. When the cells had reached a desired level of confluency of 80% in a T75 flask, the medium was aspirated, and the cells were washed with warm phosphate buffered saline or PBS two times.
4. 2-3 ml fresh warm trypsin (Gibco, Cat No. 25200-056) solution was added to the washed cells. The flask with the cells was transferred to a 37° C. incubator.
5. After 5 minutes, the side of the flask was tapped, and the flask was examined under a microscope for detachment of the cells to the flask. If necessary, the cells were kept in the incubator for an additional 5-10 minutes, with occasional tapping, until lifting was complete.
6. The trypsin reaction was neutralized by transferring 6-9 ml cell culture medium to sterile 15 ml conical tubes, and by centrifuging the cell culture at 300×g for 7 minutes to pellet the cells (supernatant decanted).
7. The cells were resuspended in fresh cell culture medium and the cell counting was performed using a hemocytometer.
8. 100 μl of the resuspended cell culture medium containing ˜5,000 cells were transferred into each well of the sterile 96-well cell culture plate (Corning 3903) and cultured overnight at 37° C. with 5% CO2.
Compound Titration and Treatment
1. All test compounds were dissolved in DMSO (Dimethyl sulfoxide) to create a 20 mM stock.
2. 3 μl of each compound 20 mM stock was mixed with 27 μl DMSO, and the compound solution was further diluted at a titration ratio of 1:3 (20 μl compound solution+40 μl DMSO) till the 10 points end.
3. All culture medium was removed from assay plates filled with HT-29 cell cultures. The cells were then washed with 1 PBS, and resuspended in fresh, FBS-free McCOY's 5A medium containing a cocktail of TNF-α (10 ng/ml), a SMAC mimetic compound (6 μM) and Z-VAD-fluoromethylketone or zVAD-FMK (10 μM) to stimulate the HT-29 cells to increase RIP1 kinase levels and necroptosis.
4. 0.5 μL of the diluted compound solution was added to the corresponding 96-well assay plates.
5. The assay plates were incubated for 20 hours at 37° C. with 5% CO2.
1. The CellTiter-Glo® Luminescent Cell Viability Assay was employed to detect the ATP levels of viable HT-29 cells.
2. The CellTiter-Glo® buffer and the lyophilized substrate were equilibrated to room temperature prior to use.
3. The CellTiter-Glo® substrate was resuspended with CellTiter-Glo® buffer, then mixed by gently vortexing to obtain a homogeneous solution.
4. 20 μl the enzyme/substrate mixture was transferred by multi-channel pipetting into 96-well assay plates.
5. The assay plates were placed on an orbital shaker and the contents were shaken for 3 minutes to induce cell lysis.
6. The assay plates were incubated at room temperature for 10 minutes to stabilize the luminescent signal.
7. The luminescence signals were read and recorded with EnVision.
8. The geometric mean EC50 values were calculated from 10 points response dose with duplicates. […]
As to `O=C(c1nc(N2CCN(C(=O)N3N=CC[C@H]3c3cc(F)cc(F)c3)CC2)ncc1F)N1CCC1` [Compound 7, (S)-azetidin-1-yl(2-(4-(5-(3,5-difluorophenyl)-4,5-dihydro-1H-pyrazole-1-carbonyl)piperazin-1-yl)-5-fluoropyrimidin-4-yl)methanone], the EC50 (as a rule, the concentration at which the effect is half-maximal) lay in the range of 0.0001 to 0.1 µM.

Staying with this assay, now noted: Homo sapiens; HT-29 cells; TNF-α 10 ng/ml, SMAC mimetic 6 μM, zVAD-FMK 10 μM; 20 hours; geometric mean, 10 points, duplicates; read-out: EC50 (Cell activity; Necrosis or Necroptosis Inhibitory Activity).
As to `COC1CN(C(=O)c2nc(N3CCN(C(=O)N4N=CC[C@H]4c4cncc(Cl)c4)CC3)ncc2Cl)C1` (stereo in doubt) [Compound 65, (5-chloro-2-(4-(5-(5-chloropyridin-3-yl)-4,5-dihydro-1H-pyrazole-1-carbonyl)piperazin-1-yl)pyrimidin-4-yl)(3-methoxyazetidin-1-yl)methanone], the EC50 lay within 0.0001 to 0.1 µM. Still for that read-out and setting: the value for `O=C(O)c1nc(N2CCN(C(=O)N3N=CC[C@H]3c3cc(F)cc(F)c3)CC2)ncc1F` [Compound 1, (S)-2-(4-(5-(3,5-difluorophenyl)-4,5-dihydro-1H-pyrazole-1-carbonyl)piperazin-1-yl)-5-fluoropyrimidine-4-carboxylic acid] was 1 to 10 µM; that for `O=C(NO)c1nc(N2CCN(C(=O)N3N=CC[C@H]3c3cc(F)cc(F)c3)CC2)ncc1F` [Compound 2, (S)-2-(4-(5-(3,5-difluorophenyl)-4,5-dihydro-1H-pyrazole-1-carbonyl)piperazin-1-yl)-5-fluoro-N-hydroxypyrimidine-4-carboxamide] was 0.0001 to 0.1 µM; that for `CONC(=O)c1nc(N2CCN(C(=O)N3N=CC[C@H]3c3cc(F)cc(F)c3)CC2)ncc1F` [Compound 3, (S)-2-(4-(5-(3,5-difluorophenyl)-4,5-dihydro-1H-pyrazole-1-carbonyl)piperazin-1-yl)-5-fluoro-N-methoxypyrimidine-4-carboxamide] was 0.1 to 1 µM. Same read-out and setting: the value for `CNC(=O)c1nc(N2CCN(C(=O)N3N=CC[C@H]3c3cc(F)cc(F)c3)CC2)ncc1F` [Compound 4] was 0.0001 to 0.1 µM. In the case of `CN(C)C(=O)c1nc(N2CCN(C(=O)N3N=CC[C@H]3c3cc(F)cc(F)c3)CC2)ncc1F` [Compound 5, 2-(4-(5-(3,5-difluorophenyl)-4,5-dihydro-1H-pyrazole-1-carbonyl)piperazin-1-yl)-5-fluoro-N,N-dimethylpyrimidine-4-carboxamide], the EC50 was in the range of 0.0001 to 0.1 µM.

With `CCN(C)C(=O)c1nc(N2CCN(C(=O)N3N=CC[C@H]3c3cc(F)cc(F)c3)CC2)ncc1F` [Compound 6, (S)-2-(4-(5-(3,5-difluorophenyl)-4,5-dihydro-1H-pyrazole-1-carbonyl)piperazin-1-yl)-N-ethyl-5-fluoro-N-methylpyrimidine-4-carboxamide], the EC50 was in the range of 0.0001 to 0.1 µM.

On to `O=C(c1nc(N2CCN(C(=O)N3N=CC[C@H]3c3cc(F)cc(F)c3)CC2)ncc1F)N1CCCC1` [Compound 8, (S)-(5-(3,5-difluorophenyl)-4,5-dihydro-1H-pyrazol-1-yl)(4-(5-fluoro-4-(pyrrolidine-1-carbonyl)pyrimidin-2-yl)piperazin-1-yl)methanone], for which the EC50 lay in the range of 0.0001 to 0.1 µM.

`CN(C(=O)c1nc(N2CCN(C(=O)N3N=CC[C@H]3c3cc(F)cc(F)c3)CC2)ncc1F)C1CC1` [Compound 9, (S)—N-cyclopropyl-2-(4-(5-(3,5-difluorophenyl)-4,5-dihydro-1H-pyrazole-1-carbonyl)piperazin-1-yl)-5-fluoro-N-methylpyrimidine-4-carboxamide]: the 50% effective concentration (EC50) fell in the range of 0.0001 to 0.1 µM. Same read-out and setting: the value for `O=C(c1nc(N2CCN(C(=O)N3N=CC[C@H]3c3cc(F)cc(F)c3)CC2)ncc1F)N1CC(CN2CCCC2)C1` [Compound 10, (5-(3,5-difluorophenyl)-4,5-dihydro-1H-pyrazol-1-yl)(4-(5-fluoro-4-(3-(pyrrolidin-1-ylmethyl)azetidine-1-carbonyl)pyrimidin-2-yl)piperazin-1-yl)methanone] was 0.0001 to 0.1 µM; that for `CCN(O)C(=O)c1nc(N2CCN(C(=O)N3N=CC[C@H]3c3cc(F)cc(F)c3)CC2)ncc1F` [Compound 11, (S)-2-(4-(5-(3,5-difluorophenyl)-4,5-dihydro-1H-pyrazole-1-carbonyl)piperazin-1-yl)-N-ethyl-5-fluoro-N-hydroxypyrimidine-4-carboxamide] was 0.0001 to 0.1 µM. The same measure, in the same setting: the value for `O=C(c1nc(N2CCN(C(=O)N3N=CC[C@H]3c3cc(F)cc(F)c3)CC2)ncc1F)N1CC(F)(F)C1` [Compound 12, (S)-(3,3-difluoroazetidin-1-yl)(2-(4-(5-(3,5-difluorophenyl)-4,5-dihydro-1H-pyrazole-1-carbonyl)piperazin-1-yl)-5-fluoropyrimidin-4-yl)methanone] was 0.0001 to 0.1 µM.

For `O=C(c1nc(N2CCN(C(=O)N3N=CC[C@H]3c3cc(F)cc(F)c3)CC2)ncc1F)N1CC(O)C1` [Compound 13, (5-(3,5-difluorophenyl)-4,5-dihydro-1H-pyrazol-1-yl)(4-(5-fluoro-4-(3-hydroxyazetidine-1-carbonyl)pyrimidin-2-yl)piperazin-1-yl)methanone], the EC50 lay within 0.0001 to 0.1 µM. Same read-out and setting: as for `O=C(c1nc(N2CCN(C(=O)N3N=CC[C@H]3c3cc(F)cc(F)c3)CC2)ncc1F)N1CC2(COC2)C1` [Compound 14, (5-(3,5-difluorophenyl)-4,5-dihydro-1H-pyrazol-1-yl)(4-(5-fluoro-4-(2-oxa-6-azaspiro[3.3]heptane-6-carbonyl)pyrimidin-2-yl)piperazin-1-yl)methanone], the figure is 0.0001 to 0.1 µM; as for `N#C[C@H]1CCN(C(=O)c2nc(N3CCN(C(=O)N4N=CC[C@H]4c4cc(F)cc(F)c4)CC3)ncc2F)C1` [Compound 15, (3S)-1-(2-(4-(5-(3,5-difluorophenyl)-4,5-dihydro-1H-pyrazole-1-carbonyl)piperazin-1-yl)-5-fluoropyrimidine-4-carbonyl)pyrrolidine-3-carbonitrile], 0.0001 to 0.1 µM; as for `N#C[C@@H]1CCN(C(=O)c2nc(N3CCN(C(=O)N4N=CC[C@H]4c4cc(F)cc(F)c4)CC3)ncc2F)C1` [Compound 16, (3R)-1-(2-(4-(5-(3,5-difluorophenyl)-4,5-dihydro-1H-pyrazole-1-carbonyl)piperazin-1-yl)-5-fluoropyrimidine-4-carbonyl)pyrrolidine-3-carbonitrile], 0.0001 to 0.1 µM. Still for that read-out and setting: the value for `O=C(c1nc(N2CCN(C(=O)N3N=CC[C@H]3c3cc(F)cc(F)c3)CC2)ncc1F)N1CCCCC1` [Compound 17, (5-(3,5-difluorophenyl)-4,5-dihydro-1H-pyrazol-1-yl)(4-(5-fluoro-4-(piperidine-1-carbonyl)pyrimidin-2-yl)piperazin-1-yl)methanone] was 0.0001 to 0.1 µM; that for `O=C(c1nc(N2CCN(C(=O)N3N=CC[C@H]3c3cc(F)cc(F)c3)CC2)ncc1F)N1CCOCC1` [Compound 18, (5-(3,5-difluorophenyl)-4,5-dihydro-1H-pyrazol-1-yl)(4-(5-fluoro-4-(morpholine-4-carbonyl)pyrimidin-2-yl)piperazin-1-yl)methanone] was 0.0001 to 0.1 µM.

As for `CN1CCN(C(=O)c2nc(N3CCN(C(=O)N4N=CC[C@H]4c4cc(F)cc(F)c4)CC3)ncc2F)CC1` [Compound 19, (5-(3,5-difluorophenyl)-4,5-dihydro-1H-pyrazol-1-yl)(4-(5-fluoro-4-(4-methylpiperazine-1-carbonyl)pyrimidin-2-yl)piperazin-1-yl)methanone], the EC50 was 0.0001 to 0.1 µM.
